In patent US20040208924A1, “Pharmaceutical tablet having a high api content” (priority 2001, published 2004):

Assays:
[1] = Solid state stability of crystal forms; type: physicochemical; settings: out of four crystal structures (forms 4, 5, 6, 7)
Description: Due to the unique structure of the API material at least four different groups of crystal structures were observed (forms 4, 5, 6, 7) and analyzed by single crystal x-ray. […] Orthorhombic Form 6 consisted of a group of isostructural (1:1) solvates which accommodates solvents such as EtOAc, acetone and MEK. […] An exhaustive study of API crystallization on the feasibility of various solvents, control of polymorphs, and robustness of process concluded that the selected form could be consistently produced and kept stable in iPrOAc (or BuOAc)/Heptane (or Cyclohexane), following which a reproducible crystallization procedure in the iPrOAc/heptane solvent system was developed and implemented. This procedure, associated with the aminolysis of penultimate compound (Chemical Abstracts Systematic Name, (αS)-α-(Benzoylthio)-3,4,4-trimethyl-2,5-dioxo-1-imidazolidinebutanoyl-L-leucyl-N,3-dimethyl-L-valinamide), is successful in purging undesirable side products/impurities such as α,α′-Dithiobis[N-[1-[[[2,2-dimethyl-1-[(methylamino)carbonyl]propyl]amino]-carbonyl]-3-methylbutyl]-3,4,4-trimethyl-2,5-dioxo-1-imidazolidinebutanamide] which is the S,S′-dimer of the API. The crystallization procedure is further described in Table 1.

matrix metalloproteinase = settings: statement referring to WO 97/12902 and U.S. Pat. No. 5,981,490; cited from earlier work
[2] = Compactability (slope of tensile strength versus compression pressure) of API blend compressed on an Instron; type: physicochemical
Protocol: In order to evaluate the compressibility and compactability of all API lots generated by modifying the crystallization process, a blend of 80% API, 19.5% microcrystalline cellulose and 0.5% magnesium stearate was prepared by mixing in a tumble mixer for 5 minutes. Each mixture was then compressed on an Instron (Universal Stress-Strain Analyzer) using a 0.5 inch diameter tooling (upper and lower punches and die) at a speed of 100 mm/min at compression forces of 5, 10, 15, 20 and 25 kN each for a replicate of three tablets. The tablet dimensions were measured using a digital Vernier calliper and the strength of the tablets were determined using an Erweka hardness tester. The volume of the tablet can be calculated from the tablet dimensions normalized for the true density of the mixture being compressed. The compressibility curves are generated by plotting the solid fraction of the tablet generated at each compression pressure versus the respective compression pressure. The area under such a curve represents the extent of volume reduction. The force required to break the tablets is normalized for the area of the tablet to obtain the tensile strength value. Slopes for profiles of tensile strength versus the compression pressure represent the compactability of the material while the area under the curve of tensile strength versus the solid fraction of the tablets represents the extent of compaction or toughness of the material.

SMILES | stability of the crystal structure in the solid state [1] | matrix metalloproteinase inhibition (matrix metalloproteinase) | product compactability ([2]; 50-g sample recrystallized using 1% AirJet-milled seeds) | product compactability ([2]; 50-g sample recrystallized using 1% ball-milled seeds) | product compactability ([2]; 50-g sample recrystallized using 1% seeds crystallized from a ground seeded batch) | compactability ([2]; crystallized with 1% ground seeds, without sonication)
CNC(=O)[C@@H](NC(=O)[C@H](CC(C)C)NC(=O)[C@@H](S)CCN1C(=O)N(C)C(C)(C)C1=O)C(C)(C)C [Form 4, N-[(2S)-2-Mercapto-1-oxo-4-(3,4,4-trimethyl-2,5-dioxo-1-imidazolidinyl)butyl]-L-leucyl-N,3-dimethyl-L-valinamide] | did not transform/decompose to other crystalline structures in the solid state |  |  |  |  | 
CNC(=O)[C@@H](NC(=O)[C@H](CC(C)C)NC(=O)[C@@H](S)CCN1C(=O)N(C)C(C)(C)C1=O)C(C)(C)C [API, N-[(2S)-2-Mercapto-1-oxo-4-(3,4,4-trimethyl-2,5-dioxo-1-imidazolidinyl)butyl]-L-leucyl-N,3-dimethyl-L-valinamide] |  | effective matrix metalloproteinase inhibitor | 4.2 kPa/MPa | 5.9 Kpa/MPa | 5.3 kPa/MPa | 10.5 kPa/MPa
